From patent US7183268B2, “2-amino-9-[(2-hydroxymethyl) cyclopropylidenemethyl] purine antiviral agents” (Wayne State University, priority 2002, dated 2007) come the findings set out here.

The subject of one test is Stationary HFF cells. Kind of test: Cytotoxicity in stationary HFF cells (microscopic inspection). In kind it is cell-based, human. How it is done: (§1) Cells and viruses. The routine growth and passage of KB cells was performed in monolayer cultures using minimal essential medium (MEM) with either Hanks salts [MEM(H)] or Earle salts [MEM(E)] supplemented with 10% calf serum. The sodium bicarbonate concentration was varied to meet the buffering capacity required. Cultures of diploid human foreskin fibroblasts (HFF) or MRC-5 cells were grown in medium consisting of MEM(E) with 10% fetal bovine serum. Cells were passaged at 1:2 to 1:10 dilutions according to conventional procedures by using 0.05% trypsin plus 0.02% EDTA in a HEPES buffered salt solution (HBS) (Shipman, C., Jr., Proc. Soc. Exp. Biol. 130:305–310 (1969)) as described previously. (Turk, S. R., et al., Antimicrob. Agents Chemother. 31:544–550 (1987). HFF and MRC-5 cells were passaged only at 1:2 dilutions.
(§2) Cytotoxicity assays. Two different assays were used to explore cytotoxicity of selected compounds as we have detailed previously. (i) Cytotoxicity produced in stationary HFF cells was determined by microscopic inspection of cells used in plaque assays which were not affected by the virus. (ii) The effect of compounds during two population doublings of KB cells was determined by crystal violet staining and spectrophotometric quantitation of dye eluted from stained cells. (Turk, S. R., et al., Antimicrob. Agents Chemother. 35:1060–1065 (1991).
(§3) Data Analysis. Dose-response relationships were constructed by linearly regressing the percent inhibition of parameters derived in the preceding sections against log drug concentrations. Fifty-percent inhibitory (IC50) concentrations were calculated from the regression lines. Samples containing positive controls (acyclovir for HSV-1, ganciclovir for HCMV, and 2-acetylpyridine thiosemicarbazone for cytotoxicity) were used in all assays. Results from sets of assays were rejected if inhibition by the positive control deviated from its mean response by >±1.5 standard deviations.

For the next test, the system named is HSV-1. Kind of test: HSV-1 ELISA in BSC-1 cells. It counts as cell-based. Here is the method: as §1
(§4) Virological procedures. Stock HCMV was prepared by infecting HFF cells at a multiplicity of infection (m.o.i.) of <0.01 plaque-forming units (p.f.u.) per cell. Cell growth medium was changed every four days until cytopathology was evident in all cells (approximately 21 days). Supernatant fluids were retained as the virus stock. High titer HSV-1 stocks were prepared by infecting KB cells at an m.o.i. of <0.1 as detailed previously. (Turk, S. R., et al., Antimicrob. Agents Chemother. 31:544–550 (1987). Virus titers were determined using monolayer cultures of HFF cells for HCMV and monolayer cultures of BSC-1 cells for HSV-1 as described earlier. (Prichard, M. N. et al., J. Virol. Methods 28:101–106 (1990). Briefly, HFF or BSC-1 cells were planted as described above in 96-well cluster dishes and incubated overnight at 37° C. in a humidified 3% CO2–97% air atmosphere. The next day cultures were inoculated with HCMV or HSV-1 and serially diluted 1:3 across the remaining eleven columns of the 96-well plate. Cultures were incubated at 37° C. for 2 hr to permit virus adsorption and then virus inoculum was replaced with 0.2 mL of fresh medium. Cultures were incubated for seven days for HCMV, two or three days for HSV-1, medium was removed, and the cell sheets were stained with 0.1% crystal violet in 20% methanol. Plaques were enumerated under 20-fold magnification in wells having the dilution which gave 5 to 20 plaques per well. Virus titers were calculated according to the following formula: Titer (p.f.u./mL)=number of plaques×5×3^n; where n represents the nth dilution of the virus used to infect the well in which plaques were enumerated.
Assays for Antiviral Activity. (b) HSV-1. An enzyme-linked immunosorbent assay (ELISA) was employed to detect HSV-1. 96-well cluster dishes were planted with BSC-1 cells at 10,000 cells per well, in a total volume of 200 μL per well of MEM(E) plus 10% calf serum. After overnight incubation at 37° C., drug and HSV-1 was added at the rate of 100 PFU/well. ELISA plates were blocked with 200 μL per well of 10% calf serum and 0.05% tween in HBS. After incubation for 30 minutes, the blocking agent was rinsed two times with HBS-T. A 1:400 dilution of AP conjugated rabbit anti-HSV-1 antibody in HBS-F was added. Plates were sealed with adhesive sheet, and incubated on rocker for one hour at 37° C. Plates were developed in the dark with 100 μL per well of substrate solution containing p-nitrophenyl phosphate. Plates were read at 492 nm. Drug effects were calculated as a percentage of the reduction in virus in the presence of each drug concentration compared to the titer obtained in the absence of drug. Acyclovir was used as a positive control in all experiments.
Data Analysis. Dose-response relationships were constructed by linearly regressing the percent inhibition of parameters derived in the preceding sections against log drug concentrations. Fifty-percent inhibitory (IC50) concentrations were calculated from the regression lines. Samples containing positive controls (acyclovir for HSV-1, ganciclovir for HCMV, and 2-acetylpyridine thiosemicarbazone for cytotoxicity) were used in all assays. […]
On the technique in general: An ELISA detects its analyte on a solid surface through an enzyme-linked reagent.

Another test has as its system HCMV. Kind of test: HCMV plaque reduction assay in HFF cells. It counts as cell-based. How it is done: as §1, §4
Assays for Antiviral Activity. (a) HCMV. The effect of compounds on the replication of HCMV has been measured using a plaque reduction assay. HFF cells in 24-well cluster dishes were infected with approximately 100 p.f.u. of HCMV per cm^2 cell sheet using the procedures detailed above. Following virus adsorption, compounds dissolved in growth medium were added to duplicate wells in three to six selected concentrations. Following incubation at 37° C. for 7 to 10 days, cell sheets were fixed, stained with crystal violet and microscopic plaques enumerated as described above. Drug effects were calculated as a percentage of reduction in number of plaques in the presence of each drug concentration compared to the number observed in the absence of drug. Ganciclovir (GCV) was used as a positive control in all experiments.
as §3

A further test deals with Growing KB cells. Kind of test: Cytotoxicity in growing KB cells (crystal violet staining). In kind it is cell-based. Here is the method:
as §1, §2, §3

Read-outs that look alike come from different tables or passages of the source. Bounds are passed on as bounds.

As to `Nc1ncc2ncn(/C=C3/C[C@@H]3CO)c2n1` [Compound 18, (Z,S)-(+)-2-Amino-9-[(2-hydroxymethyl)cyclopropylidenemethyl]purine], the IC50 – broadly, the concentration at which inhibition is half-maximal – was above 100 µM in the test on Stationary HFF cells, 35 µM in the test on HSV-1, above 100 µM in the test with HCMV (HFF host cells) and above 100 µM in the test on Growing KB cells.

Take `C#CCNc1nc(N)nc2c1ncn2/C=C1/C[C@@H]1CO` [Compound 7, (Z,S)-(+)-2-Amino-6-propargylamino-9-[(2-hydroxymethyl)-cyclopropylidenemethyl]purine]: the IC50 in the test on Stationary HFF cells was above 100 µM; with HSV-1 it was 6 µM; with HCMV (HFF host cells), 3.5 µM; in the test on Growing KB cells, above 100 µM.

For the compound `CC(C)Nc1nc(N)nc2c1ncn2/C=C1/C[C@@H]1CO` [Compound 9, (Z,S)-(+)-2-Amino-6-isopropylamino-9-[(2-hydroxymethyl)-cyclopropylidenemethyl]purine], the IC50 in the test with Stationary HFF cells was above 100 µM; in the test on HSV-1, 15 µM; in the test with HCMV (HFF host cells), 3.8 µM; in the test with Growing KB cells it was above 100 µM.

Regarding `C=CCNc1nc(N)nc2c1ncn2/C=C1/C[C@@H]1CO` [Compound 6, (Z,S)-(+)-2-Amino-6-allylamino-9-[(2-hydroxymethyl)cyclopropylidenemethyl]purine], the IC50 in the test on Stationary HFF cells was above 100 µM; in the test with HSV-1, 4 µM; in the test on HCMV (HFF host cells), 1.8 µM; in the test with Growing KB cells, above 100 µM.

As to `Nc1nc(NC2CCCCC2)c2ncn(/C=C3/C[C@@H]3CO)c2n1` [Compound 11, (Z,S)-(+)-2-Amino-6-cyclohexylamino-9-[(2-hydroxymethyl)-cyclopropylidenemethyl]purine], the IC50 in the test on Stationary HFF cells is above 100 µM; in the test on HSV-1, 15 µM; in the test on HCMV (HFF host cells), above 100 µM; in the test on Growing KB cells, above 100 µM.

Consider `Nc1nc2c(ncn2COCCO)c(=O)[nH]1` [Acyclovir, reference compound], for which the IC50 in the test with HSV-1 (Human alphaherpesvirus 1) was 0.15 µM; in the test with Growing KB cells (Homo sapiens), above 100 µM.

`Nc1nc(NCCO)c2ncn(/C=C3/C[C@@H]3CO)c2n1` [Compound 12, (Z,S)-(+)-2-Amino-6-(2-hydroxy)ethylamino-9-[(2-hydroxymethyl)cyclopropylidenemethyl]purine]: the IC50 in the test with Stationary HFF cells was above 100 µM; with HSV-1, above 100 µM; in the test with HCMV (HFF host cells), 39 µM; in the test with Growing KB cells, above 100 µM.

Take `CCCOc1nc(N)nc2c1ncn2/C=C1/C[C@@H]1CO` [Compound 13a, (Z,S)-(+)-2-Amino-6-propoxy-9-[(2-hydroxymethyl)cyclopropylidenemethyl]purine]: the IC50 in the test with Stationary HFF cells was above 100 µM; in the test on HSV-1 it was 1 µM; in the test with HCMV (HFF host cells), 0.26 µM; with Growing KB cells, above 100 µM.

Regarding `Nc1nc(OCC2CC2)c2ncn(/C=C3/C[C@@H]3CO)c2n1` [Compound 15, (Z,S)-(+)-2-Amino-6-cyclopropylmethoxy-9-[(2-hydroxymethyl)cyclopropylidenemethyl]purine], the IC50 with Stationary HFF cells is above 100 µM; in the test on HSV-1, 7 µM; in the test on HCMV (HFF host cells) it was 0.32 µM; in the test with Growing KB cells, above 100 µM.

Regarding `Nc1nc(O)c2ncn(COC(CO)CO)c2n1` [Ganciclovir, reference compound], the IC50 was above 100 µM with Stationary HFF cells (Homo sapiens) and 4.1 µM in the test with HCMV (Human betaherpesvirus 5, HFF host cells).

`Nc1nc(NCC2CC2)c2ncn(/C=C3/C[C@@H]3CO)c2n1` [Compound 8, (Z,S)-(+)-2-Amino-6-cyclopropylmethylamino-9-[(2-hydroxymethyl)cyclopropylidenemethyl]purine]: the IC50 was above 100 µM in the test on Stationary HFF cells, 2.5 µM in the test with HSV-1, 3.8 µM in the test with HCMV (HFF host cells) and above 100 µM with Growing KB cells.

With `C=CCOc1nc(N)nc2c1ncn2/C=C1/C[C@@H]1CO` [Compound 14, (Z,S)-(+)-2-Amino-6-allyloxy-9-[(2-hydroxymethyl)cyclopropylidenemethyl]purine], the IC50 was above 100 µM in the test on Stationary HFF cells, 1.5 µM in the test with HSV-1, 0.33 µM with HCMV (HFF host cells) and above 100 µM in the test on Growing KB cells.

Turning to `Nc1nc(S)c2ncn(/C=C3/C[C@@H]3CO)c2n1` [Compound 17, (Z,S)-(+)-2-Amino-6-thio-9-[(2-hydroxymethyl)cyclopropylidenemethyl]purine], the IC50 in the test with Stationary HFF cells is above 100 µM; in the test with HSV-1 it was above 100 µM; in the test with HCMV (HFF host cells), 37 µM; in the test on Growing KB cells, above 100 µM.

On to `CCCCCOc1nc(N)nc2c1ncn2/C=C1/C[C@@H]1CO` [Compound 13b, (Z,S)-(+)-2-Amino-6-pentyloxy-9-[(2-hydroxymethyl)cyclopropylidenemethyl]purine], for which the 50% inhibitory concentration (IC50) in the test with Stationary HFF cells is above 100 µM; with HSV-1, 7 µM; in the test on HCMV (HFF host cells), 0.21 µM; with Growing KB cells, above 100 µM.

`Nc1nc(NCc2ccccc2)c2ncn(/C=C3/C[C@@H]3CO)c2n1` [Compound 10, (Z,S)-(+)-2-Amino-6-benzylamino-9-[(2-hydroxymethyl)cyclopropylidenemethyl]purine]: the IC50 in the test with Stationary HFF cells was above 100 µM; in the test on HSV-1, 25 µM; in the test on HCMV (HFF host cells), above 100 µM; in the test with Growing KB cells it was above 100 µM.

Regarding `CCCCCSc1nc(N)nc2c1ncn2/C=C1/C[C@@H]1CO` [Compound 16b, (Z,S)-(+)-2-Amino-6-pentylthio-9-[(2-hydroxymethyl)cyclopropylidenemethyl]purine], the IC50 is above 100 µM with Stationary HFF cells, 7 µM with HSV-1, 0.32 µM in the test with HCMV (HFF host cells) and above 100 µM in the test with Growing KB cells.

On to `CCCSc1nc(N)nc2c1ncn2/C=C1/C[C@@H]1CO` [Compound 16a, (Z,S)-(+)-2-Amino-6-propylthio-9-[(2-hydroxymethyl)cyclopropylidenemethyl]purine], for which the IC50 with Stationary HFF cells is above 100 µM; in the test with HSV-1, 1 µM; in the test with HCMV (HFF host cells) it was 0.22 µM; in the test on Growing KB cells, above 100 µM.
